According to PubChem BioAssay AID330 (DTP/NCI, 2004):
“And” between values parts separate entries of the source, which are not always exact repeats. Equal entries are not always repeated. Inconclusive results and toxic doses are left out.

System: P388 leukemia ip, CD2F1 mice, survival T/C
Assay: NCI In Vivo Anticancer Drug Screen. Data for tumor model P388 Leukemia (intraperitoneal) in CD2F1 (CDF1) mice
Conditions: endpoint: median survival time, higher = longer survival
Outline: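 Mice carrying the transplanted tumor received test compound or vehicle. Survival was recorded in each group, and the value is the treated-group measurement divided by that of the vehicle-treated control group.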

[1] = dose: 25.0 mg/kg/injection, schedule: Q01DX009 (ip), vehicle: saline with Tween-80
[2] = dose: 50.0 mg/kg/injection, schedule: Q01DX009 (ip), vehicle: saline with Tween-80
[3] = dose: 100.0 mg/kg/injection, schedule: Q01DX009 (ip), vehicle: saline with Tween-80
[4] = dose: 200.0 mg/kg/injection, schedule: Q01DX009 (ip), vehicle: saline with Tween-80
[5] = dose: 50.0 mg/kg/injection, schedule: Q01DX009 (ip), vehicle: saline
[6] = dose: 100.0 mg/kg/injection, schedule: Q01DX009 (ip), vehicle: saline
[7] = dose: 200.0 mg/kg/injection, schedule: Q01DX009 (ip), vehicle: saline
[8] = dose: 100.0 mg/kg/injection, schedule: Q01DX001 (ip), vehicle: saline with Tween-80
[9] = dose: 200.0 mg/kg/injection, schedule: Q01DX001 (ip), vehicle: saline with Tween-80
[10] = dose: 50.0 mg/kg/injection, schedule: Q01DX009 (ip), vehicle: Klucel (hydroxypropylcellulose) (HPC)
[11] = dose: 100.0 mg/kg/injection, schedule: Q01DX009 (ip), vehicle: Klucel (hydroxypropylcellulose) (HPC)
[12] = dose: 200.0 mg/kg/injection, schedule: Q01DX009 (ip), vehicle: Klucel (hydroxypropylcellulose) (HPC)
[13] = dose: 12.5 mg/kg/injection, schedule: Q04DX003 (ip), vehicle: saline with Tween-80
[14] = dose: 25.0 mg/kg/injection, schedule: Q04DX003 (ip), vehicle: saline with Tween-80
[15] = dose: 50.0 mg/kg/injection, schedule: Q04DX003 (ip), vehicle: saline with Tween-80

For `Cn1cc2c(=O)n(C)ncc2n1`, the T/C (dose: 60.0 mg/kg/injection, schedule: Q01DX005 (ip), vehicle: saline) was 100 % of control, the T/C (dose: 120.0 mg/kg/injection, schedule: Q01DX005 (ip), vehicle: saline) was 109 % of control and the T/C (dose: 240.0 mg/kg/injection, schedule: Q01DX005 (ip), vehicle: saline) was 100 % of control.

With `COc1cc2cc3c4cc(OC)c(OC)cc4cc(C)[n+]3cc2cc1OC` the T/C (dose: 12.5 mg/kg/injection, schedule: Q01DX009 (ip), vehicle: water) was 155 % of control, the T/C (dose: 25.0 mg/kg/injection, schedule: Q01DX009 (ip), vehicle: water) was 180 % of control and the T/C (dose: 50.0 mg/kg/injection, schedule: Q01DX009 (ip), vehicle: water) was 170 % of control. The T/C (dose: 100.0 mg/kg/injection, schedule: Q01DX009 (ip), vehicle: water) was 163 % of control.

With `O=C1C(=O)c2ccccc2C(O)=C1CCCc1ccc(C2CCCCC2)cc1` the T/C (dose: 3.12 mg/kg/injection, schedule: Q01DX009 (ip), vehicle: saline with Tween-80) was 112 % of control, the T/C (dose: 6.25 mg/kg/injection, schedule: Q01DX009 (ip), vehicle: saline with Tween-80) was 101 % of control and the T/C (dose: 12.5 mg/kg/injection, schedule: Q01DX009 (ip), vehicle: saline with Tween-80) was 94 % of control. The T/C [1] was 101 % of control, the T/C [2] was 94 % of control and the T/C [3] was 93 % of control. The T/C [4] was 104 % of control.

With `CCOP(=O)(Cc1ccc(-c2nc3ccccc3o2)cc1)OCC` the T/C [5] was 103 % of control, the T/C [6] was 100 % of control and the T/C [7] was 99 % of control.

In the case of `N#C[C@H]1C[C@@H](c2ccc([N+](=O)[O-])cc2)N(c2ccc(C=O)cc2)O1`, the T/C [8] is reported as 98 % of control, the T/C [9] is reported as 98 % of control and the T/C (dose: 400.0 mg/kg/injection, schedule: Q01DX001 (ip), vehicle: saline with Tween-80) is reported as 99 % of control.

`CCOC(=O)NN(C(=O)OCC)C(C(=O)C1CCCCC1)N(NC(=O)OCC)C(=O)OCC` was tested, and the T/C [10] was 102 % of control, the T/C [11] was 100 % of control and the T/C [12] was 96 % of control.

In the case of `O=c1[nH]cccc1O`, the T/C (dose: 16.0 mg/kg/injection, schedule: Q01DX009 (ip), vehicle: saline with Tween-80) is reported as 115 % of control, the T/C (dose: 32.0 mg/kg/injection, schedule: Q01DX009 (ip), vehicle: saline with Tween-80) is reported as 122 % of control and the T/C [10] is reported as 109 % of control and 113 % of control. The T/C [5] was 105 % of control and 110 % of control, the T/C (dose: 64.0 mg/kg/injection, schedule: Q01DX009 (ip), vehicle: saline with Tween-80) was 112 % of control and the T/C [6] was 100 % of control and 111 % of control. The T/C [7] was 112 % of control and 115 % of control, the T/C (dose: 400.0 mg/kg/injection, schedule: Q01DX009 (ip), vehicle: Klucel (hydroxypropylcellulose) (HPC)) was 98 % of control and the T/C (dose: 512.0 mg/kg/injection, schedule: Q01DX009 (ip), vehicle: saline with Tween-80) was 153 % of control.

In the case of `CN=P1(NC)NP(=NC)(NC)NP(=NC)(NC)NP(=NC)(NC)N1.[Cl-].[Cl-].[Cl-].[Cl-].[Pt+2]` (stereo not given), the T/C [13] is reported as 102 % of control, the T/C [14] is reported as 111 % of control and the T/C [15] is reported as 120 % of control. The T/C (dose: 100.0 mg/kg/injection, schedule: Q04DX003 (ip), vehicle: saline with Tween-80) was 109 % of control.

For `CCc1nc2c(cnn2C)c(=O)n1-c1ccccc1Cl`, the T/C (dose: 50.0 mg/kg/injection, schedule: Q01DX005 (ip), vehicle: Klucel (hydroxypropylcellulose) (HPC)) was 100 % of control, the T/C (dose: 100.0 mg/kg/injection, schedule: Q01DX005 (ip), vehicle: Klucel (hydroxypropylcellulose) (HPC)) was 100 % of control and the T/C (dose: 200.0 mg/kg/injection, schedule: Q01DX005 (ip), vehicle: Klucel (hydroxypropylcellulose) (HPC)) was 102 % of control.

For `C[N+]1(C)CCCC(O)(C(=O)c2ccccc2)C1` (stereo not given), the T/C (dose: 100.0 mg/kg/injection, schedule: Q01DX001 (ip), vehicle: saline) was 98 % of control and the T/C (dose: 200.0 mg/kg/injection, schedule: Q01DX001 (ip), vehicle: saline) was 100 % of control.

With `CC(=O)CC(=O)Cc1oc2c(C(C)=O)c(O)c(C)c(O)c2c1C` the T/C [1] was 90 % of control, the T/C [2] was 90 % of control and the T/C [3] was 88 % of control. The T/C [4] was 90 % of control.

For `CCCOC(=O)C1(CCl)CCC(=O)O1` (stereo not given), the T/C [10] was 101 % of control, the T/C [11] was 103 % of control and the T/C [12] was 103 % of control.

In the case of `ICCN(CCI)c1ccc2c(ccc3ccccc32)c1`, the T/C (dose: 100.0 mg/kg/injection, schedule: Q04DX003 (ip), vehicle: Klucel (hydroxypropylcellulose) (HPC)) is reported as 102 % of control, the T/C (dose: 200.0 mg/kg/injection, schedule: Q04DX003 (ip), vehicle: Klucel (hydroxypropylcellulose) (HPC)) is reported as 118 % of control and the T/C (dose: 400.0 mg/kg/injection, schedule: Q04DX003 (ip), vehicle: Klucel (hydroxypropylcellulose) (HPC)) is reported as 118 % of control.

For `Cc1cc(OC(=O)Nc2c(Cl)cccc2Cl)c(Cl)c(C)c1Cl`, the T/C [2] was 112 % of control, the T/C [3] was 109 % of control and the T/C [4] was 105 % of control.

In the case of `C=C1C(=O)O[C@@H]2C[C@@]3(C)CC(=O)C=C(C)[C@@H]3C[C@H]12`, the T/C (dose: 6.25 mg/kg/injection, schedule: Q04DX003 (ip), vehicle: saline with Tween-80) is reported as 108 % of control, the T/C [13] is reported as 104 % of control and the T/C [14] is reported as 108 % of control. For the same compound, the T/C [15] was 100 % of control.

`CCOC(OCC)C(C)(C)CNC` was tested, and the T/C (dose: 100.0 mg/kg/injection, schedule: Q01DX001 (ip), vehicle: saline sonified) was 109 % of control and the T/C (dose: 200.0 mg/kg/injection, schedule: Q01DX001 (ip), vehicle: saline sonified) was 113 % of control.

For `S=C(N/N=C\c1nc2ccccc2c2ccccc12)Nc1ccccc1`, the T/C (dose: 100.0 mg/kg/injection, schedule: Q04DX002 (ip), vehicle: Klucel (hydroxypropylcellulose) (HPC)) was 99 % of control, the T/C (dose: 200.0 mg/kg/injection, schedule: Q04DX002 (ip), vehicle: Klucel (hydroxypropylcellulose) (HPC)) was 94 % of control and the T/C (dose: 400.0 mg/kg/injection, schedule: Q04DX002 (ip), vehicle: Klucel (hydroxypropylcellulose) (HPC)) was 93 % of control.

With `OC1CCCCCC2CC12` (stereo not given) (tested in a mixture with another compound) the T/C (dose: 50.0 mg/kg/injection, schedule: Q01DX009 (ip), vehicle: other) was 102 % of control, the T/C (dose: 100.0 mg/kg/injection, schedule: Q01DX009 (ip), vehicle: other) was 103 % of control and the T/C (dose: 200.0 mg/kg/injection, schedule: Q01DX009 (ip), vehicle: other) was 96 % of control.

With `S=C1N(c2ccc(Cl)cc2)C2=C(N=Nc3ccccc3)C(=Nc3ccccc3S2)N1c1ccccn1` the T/C (dose: 50.0 mg/kg/injection, schedule: Q01DX005 (ip), vehicle: saline with Tween-80) was 109 % of control and the T/C (dose: 100.0 mg/kg/injection, schedule: Q01DX005 (ip), vehicle: saline with Tween-80) was 108 % of control.

For `CN1CC2c3cc4c(cc3CC1c1cc3c(cc12)OCO3)OCO4` (stereo not given), the T/C [8] was 108 % of control and the T/C [9] was 108 % of control.

With `C=CC(=C)C1(O)c2ccccc2C(=O)N1C` (stereo not given) the T/C (dose: 60.0 mg/kg/injection, schedule: Q01DX005 (ip), vehicle: Klucel (hydroxypropylcellulose) (HPC)) was 106 % of control and the T/C (dose: 120.0 mg/kg/injection, schedule: Q01DX005 (ip), vehicle: Klucel (hydroxypropylcellulose) (HPC)) was 109 % of control.

`C[CH2][Ge]([CH2]C)[CH2]/C(C)=C(/C)[CH2][Ge]([CH2]C)[CH2]C` was tested, and the T/C [2] was 100 % of control and the T/C [3] was 108 % of control.

In the case of `C1=CCOCOC1`, the T/C [2] is reported as 102 % of control and 109 % of control (2×), the T/C [3] is reported as 104 % of control and 109 % of control and 116 % of control and the T/C [4] is reported as 111 % of control.

`O=c1[nH]/c(=C/c2ccc(CO)o2)c(=O)[nH]/c1=C\c1ccc(CO)o1` was tested, and the T/C (dose: 12.5 mg/kg/injection, schedule: Q01DX009 (ip), vehicle: distilled water + Tween-80) was 90 % of control, the T/C (dose: 25.0 mg/kg/injection, schedule: Q01DX009 (ip), vehicle: distilled water + Tween-80) was 89 % of control and the T/C (dose: 50.0 mg/kg/injection, schedule: Q01DX009 (ip), vehicle: distilled water + Tween-80) was 87 % of control. The T/C (dose: 100.0 mg/kg/injection, schedule: Q01DX009 (ip), vehicle: distilled water + Tween-80) was 87 % of control and the T/C (dose: 200.0 mg/kg/injection, schedule: Q01DX009 (ip), vehicle: distilled water + Tween-80) was 90 % of control.

With `C[n+]1ccccc1NC(=O)c1ccccc1` the T/C (dose: 61.5 mg/kg/injection, schedule: Q01DX001 (ip), vehicle: saline) was 100 % of control, the T/C (dose: 123.0 mg/kg/injection, schedule: Q01DX001 (ip), vehicle: saline) was 104 % of control and the T/C (dose: 246.0 mg/kg/injection, schedule: Q01DX001 (ip), vehicle: saline) was 104 % of control.
